Reference: US12269859B2, “Synthetic immune receptors and methods of use thereof” (Angeles Therapeutics, Inc., priority 2016, dated 2025)

Tests used:
RAJI cells [1] = experiment: RAJI xenograft model of lymphoma in NSG mice (survival); type: in vivo
Experimental: In vivo efficacy of SIR targeting CD19. […] SIR constructs and Gluc-PAC-G07 control construct encoding non-secretory form of Guassia Luciferase. Approximately half the cells were selected with puromycin while the other half was expanded without puromycin selection. NSG mice (Jackson Lab) were sub-lethally irradiated at a dose of 175 cGy. Approximately 24 hours post irradiation (day 2), mice were injected with 2.5×10^4 RAJI cells via tail-vein. […] Control mice (n=5) received no T cells or uninfected T cells. Mice were given human IL2 (400 IU intraperitoneally) on alternate days till the death of all mice in control group.
Approximately half the cells were selected with puromycin while the other half was expanded without puromycin selection. NSG mice (Jackson Lab) were sub-lethally irradiated at a dose of 175 cGy. Approximately 24 hours post irradiation (day 2), mice were injected with 2.5×10^4 RAJI cells via tail-vein. […] Control mice (n=5) received no T cells or uninfected T cells. Mice were given human IL2 (400 IU intraperitoneally) on alternate days till the death of all mice in control group.
SIR construct. NSG mice (Jackson Lab) were sub-lethally irradiated at a dose of 175 cGy. Approximately 24 hours post irradiation (day 2), mice were injected with 2.5×10^4 RAJI cells via tail-vein. […] SIR encoding lentivirus. Control mice (n=5) were injected with 5 million uninfected T cells or given no T cells.
SIR constructs. […] SIR were included as controls. NSG mice (n=5) were sub-lethally irradiated at a dose of 175 cGy. 24 hours post irradiation (day 2), mice were injected with 2.5×10^4 RAJI cells via tail-vein. […] Mice were given human IL2 (400 IU i.p.) on alternate days till the death of all mice in control group.
Human peripheral blood T cells isolated using CD3 magnetic beads were infected with lentiviruses expressing the indicated SIR constructs targeting Lym1 and Lym2. On day 1, the NSG mice were sub-lethally irradiated at a dose of 175 cGy. 24 hours post irradiation (day 2), mice were injected with 25×10^3 Raji cells intravenously. On day 3, the mice were treated intravenously with 10 million indicated CAR-T cells. Beginning on day 4, mice were injected with human IL-2 i.p. at a dose of 400 IU/mice every alternate day after the injection CAR-T cells till the death of all mice in control group.

Protein L magnetic beads = experiment: Jurkat NFAT-GFP assay, coculture with Protein L magnetic beads; type: cell-based, human; settings: coculture with Protein L beads for 18 hours
Description: Use of Protein L microbeads and Protein L expressing cells for stimulation of SIR and CAR expressing cells. A number of Human cell-based artificial antigen-presenting cells for cancer immunotherapy have been described. One approach for ex vivo expansion of CAR^+ and SIR^+ T cells involves the use of irradiated artificial antigen presenting cells (aAPC) expressing the targeted tumor associated antigen (TAA). However, this approach requires that the aAPC be engineered to express each individual TAA. To overcome this problem, a universal antigen presenting cell was developed. Protein L is an immunoglobulin (Ig) light chain-binding protein expressed by some strains of the anaerobic bacterial species Peptostreptococcus magnus. […] As an alternative to expressing individual TAAs on aAPC, experiments were performed to determine if Protein L could activate CAR^+ T and SIR^+ T cells independent of specificity. In the initial experiments, coculture of Jurkat-NFAT-GFP cells expressing different CAR and SIR constructs were tested to determine whether Protein L magnetic beads would lead to induction of GFP expression. Pierce Protein L magnetic beads (cat. #88849; concentration 10 mg/ml) were purchased from ThermoFisher and diluted 1:10 in PBS. Approximately 10 μl of diluted beads were added per well in a U-bottom 96-well plate. […] CAR were added to the wells and cocultured with the beads for 18 hours. […]

293-Protein L-II cells = experiment: Jurkat NFAT-GFP assay, coculture with 293-Protein L-II cells; type: cell-based, human; settings: co-culture with 293-Protein L-II cells approximately 18 hours
Description: Generation of human aAPC expressing Protein L on cell surface. Lentiviral chimeric antigen receptor (CAR) constructs were generated expressing different regions of Protein L in fusion with hinge and transmembrane regions of human CD8, 41BB costimulatory domain and CD3z chain. The nucleotide sequence of Protein L was codon optimized for optimal expression in human cells. It needs to be noted that the 41BB costimulatory domain and CD3z chain are not essential for the function of Protein L for the purpose of this invention. The vectors also carried N-terminal signal peptides derived from either human CD8 or IgH to allow cell surface transport of Protein L. The complete nucleic acid and amino acid sequence of the vectors are provided in SEQ ID NO: 888 and SEQ ID NO: 889.
Next, 293 cells were infected with a lentivirus vector encoding the Protein L-II construct (072716-K01) and polyclonal population of cells stably expressing Protein L were generated following selection with 750 ng/ml puromycin. […] SIR constructs. […] The use of Protein-L expressing aAPC is, however, not limited to above type of cells. These cells can serve as universal aAPC for any immune effector cell which carries an antigen binding domain derived from a suitable κ chain containing antibody that can bind to Protein L.

RAJI cells [2] = experiment: Jurkat NFAT-GFP assay, coculture with RAJI cells; type: cell-based, human; settings: SIR/CAR-expressing Jurkat-NFAT-GFP cells cocultured with RAJI cells
Experimental: (B) Induction of NFAT promoter driven GFP expression. The control vector- and SIR-expressing Jurkat-NFAT-GFP cocultured for 4-24 hours with the target antigen-expressing cell line (described above) and their ability to bind to the target antigen is assayed by measuring induction of GFP expression using Flow Cytometry. Cellular supernatant is collected and assayed for the induction of cytokines (e.g., IL2).
Jurkat NFAT-GFP Assay For Synthetic Immune Receptors. The Jurkat-NFAT-GFP cells are engineered in such a way that the IL-2 promoter, which carries NFAT binding sites, is cloned upstream of the GFP gene. These cells have been used to study signaling via TCR and CAR. […]
Induction of GFP expression by coculturing of Jurkat-NFAT-GFP cells expressing different SIR constructs and the different target cells was studied essentially as described previously (Wu, Roybal, Puchner, Onuffer, & Lim, 2015). GFP expression was monitored by FACS analysis. […] The names of different SIRs, their SEQ ID NOs, component antigen binding domains and TCR chains can be determined by reference to Tables 7A-7H. […] The signs +/−, +, 2+ etc. after the name of the cell lines indicate the relative degree of positivity on the Jurkat-NFAT-GFP assay as measured by the % GFP positive cells after culture of the SIR expressing Jurkat-NFAT-GFP cells with that cell line.

With Cc1sc2c(c1C)C(c1ccc(Cl)cc1)=N[C@@H](CC(=O)OC(C)(C)C)c1nnc(C)n1-2 [JQ1(+), reference compound] as the molecule, how does the “persistence of SIR-T cells and survival vs vehicle (in words)” value (RAJI cells [1]; 50 mg/kg twice daily intra-peritoneal, mice receiving SEQ ID NO: 1200 SIR-T cells) read?
The value was “longer persistence of SIR-T cells and survive longer”.

For COc1ccc(-c2cc3c(C)nc(N)nc3n([C@H]3CC[C@H](OCCO)CC3)c2=O)cn1 [PF-04691502, reference compound], which “median survival of mice given SIR-T cells expanded in presence vs absence of the inhibitor (in words)” value (RAJI cells [1]; SIR-T (SEQ ID NO:900) expanded with 0.10 μM to 0.5 μM) is on record?
The value was “higher”.

Which results are given for “CD8SP-FMC63(vL-vH)-Myc-BBz-T2A-PAC [SEQ ID NO:4501, reference compound]”?
induction of GFP expression (in words) (Protein L magnetic beads): modest induction of GFP expression; induction of GFP expression (in words) (293-Protein L-II cells): strong induction of GFP expression

With “pSBbi-puro-FMC63vL-V5-[TCRb-KACIAH]-F-P2A-FMC63vH-MYC-[TCRa-CSDVP]-F-F2A [SEQ ID NO:875]” as the molecule, how does the “induction of GFP expression / NFAT signaling (in words)” value (RAJI cells [2]) read?
Its value is “showed GFP induction”.
